Results published in the supplement of paper PMC10307832.

What was measured:
Experiment in all cases: relative viability (nuclei count vs DMSO), 5 days (fraction); higher = more cells survive
GSK126 + Olaparib = compound: CC[C@H](C)N1C=C(C2=C(C=C(C=C21)C3=CN=C(C=C3)N4CCNCC4)C(=O)NCC5=C(C=C(NC5=O)C)C)C [GSK126] + O=C(c1cc(Cc2n[nH]c(=O)c3ccccc23)ccc1F)N1CCN(C(=O)C2CC2)CC1 [Olaparib] (partner 8 µM)
Summary of the method: (§1)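 After 5 days of treatment, lung cancer cells in 1536-well plates were fixed and stained in a single step (final 0.05% Triton X-100, 1% formaldehyde, 1 ug/ml Hoechst) and their nuclei counted on 4× images. Treatment had been applied by pin tool the day after seeding as one drug alone or as a fixed anchor-drug dose with five library-drug doses (not always all listed) in √10 steps. Relative viability is the nuclei count of treated wells divided by that of vehicle wells, and values are medians of duplicate plates.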

MLN4924 + Decitabine = compound: NS(=O)(=O)OC[C@@H]1C[C@@H](n2ccc3c(N[C@H]4CCc5ccccc54)ncnc32)C[C@@H]1O [MLN4924] + Nc1ncn([C@H]2C[C@H](O)[C@@H](CO)O2)c(=O)n1 [Decitabine] (partner 2 µM)
Summary of the method: as §1

MLN4924 + Lapatinib = compound: NS(=O)(=O)OC[C@@H]1C[C@@H](n2ccc3c(N[C@H]4CCc5ccccc54)ncnc32)C[C@@H]1O [MLN4924] + CS(=O)(=O)CCNCc1ccc(-c2ccc3ncnc(Nc4ccc(OCc5cccc(F)c5)c(Cl)c4)c3c2)o1 [Lapatinib] (partner 2 µM)
Summary of the method: as §1

GSK126 + Luminespib = compound: CC[C@H](C)N1C=C(C2=C(C=C(C=C21)C3=CN=C(C=C3)N4CCNCC4)C(=O)NCC5=C(C=C(NC5=O)C)C)C [GSK126] + CCNC(=O)c1noc(-c2cc(C(C)C)c(O)cc2O)c1-c1ccc(CN2CCOCC2)cc1 [Luminespib] (partner 0.01 µM)
Summary of the method: as §1

Row | Cell Line | relative viability (GSK126 + Olaparib; first compound 0.08 µM) | relative viability (GSK126 + Olaparib; first compound 0.253 µM) | relative viability (GSK126 + Olaparib; first compound 0.8 µM) | relative viability (GSK126 + Olaparib; first compound 2.53 µM) | relative viability (GSK126 + Olaparib; first compound 8 µM) | relative viability (MLN4924 + Decitabine; first compound 0.04 µM) | relative viability (MLN4924 + Decitabine; first compound 0.1265 µM) | relative viability (MLN4924 + Decitabine; first compound 0.4 µM) | relative viability (MLN4924 + Decitabine; first compound 1.265 µM) | relative viability (MLN4924 + Decitabine; first compound 4 µM) | relative viability (MLN4924 + Lapatinib; first compound 0.04 µM) | relative viability (MLN4924 + Lapatinib; first compound 0.1265 µM) | relative viability (MLN4924 + Lapatinib; first compound 0.4 µM) | relative viability (MLN4924 + Lapatinib; first compound 1.265 µM) | relative viability (MLN4924 + Lapatinib; first compound 4 µM) | relative viability (GSK126 + Luminespib; first compound 0.08 µM) | relative viability (GSK126 + Luminespib; first compound 0.253 µM) | relative viability (GSK126 + Luminespib; first compound 0.8 µM) | relative viability (GSK126 + Luminespib; first compound 2.53 µM) | relative viability (GSK126 + Luminespib; first compound 8 µM)
1 | NCI-H1437 | 0.649 | 0.621 | 0.605 | 0.554 | 0.575 | 0.529 | 0.435 | 0.438 | 0.254 | 0.249 | 0.79 | 0.656 | 0.268 | 0.119 | 0.1 | 1.09 | 1.07 | 1.04 | 1.11 | 1.06
2 | NCI-H1650 | 0.742 | 0.849 | 0.761 | 0.784 | 0.901 | 0.371 | 0.388 | 0.252 | 0.175 | 0.193 | 0.385 | 0.261 | 0.182 | 0.149 | 0.185 | 0.217 | 0.193 | 0.188 | 0.166 | 0.205
3 | NCI-H1651 | 0.183 | 0.175 | 0.176 | 0.178 | 0.161 | 0.578 | 0.586 | 0.46 | 0.216 | 0.146 | 0.911 | 0.776 | 0.281 | 0.138 | 0.116 | 0.966 | 0.948 | 0.766 | 0.732 | 0.817
4 | NCI-H1666 | 0.745 | 0.723 | 0.742 | 0.729 | 0.76 | 0.699 | 0.622 | 0.417 | 0.393 | 0.389 | 0.382 | 0.307 | 0.305 | 0.159 | 0.211 | 1.04 | 0.926 | 0.858 | 0.855 | 0.907
5 | NCI-H1734 | 0.633 | 0.685 | 0.628 | 0.701 | 0.756 | 0.514 | 0.472 | 0.197 | 0.141 | 0.135 | 1.02 | 0.925 | 0.19 | 0.118 | 0.134 | 0.179 | 0.231 | 0.117 | 0.176 | 0.213
6 | NCI-H1755 | 0.9 | 0.922 | 0.877 | 0.826 | 0.822 | 0.644 | 0.545 | 0.526 | 0.378 | 0.245 | 0.933 | 1.03 | 0.386 | 0.181 | 0.165 | 0.435 | 0.519 | 0.58 | 0.381 | 0.501
7 | NCI-H1792 | 0.471 | 0.351 | 0.507 | 0.374 | 0.551 | 0.72 | 0.556 | 0.571 | 0.377 | 0.219 | 0.806 | 0.599 | 0.484 | 0.182 | 0.175 | 0.386 | 0.401 | 0.443 | 0.483 | 0.355
8 | NCI-H1793 | 0.931 | 0.8 | 0.732 | 1.24 | 0.989 | 0.49 | 0.463 | 0.482 | 0.318 | 0.195 | 0.662 | 0.645 | 0.395 | 0.136 | 0.167 | 0.152 | 0.177 | 0.164 | 0.258 | 0.152
9 | NCI-H1915 | 0.271 | 0.277 | 0.25 | 0.266 | 0.269 | 0.271 | 0.262 | 0.235 | 0.202 | 0.142 | 0.88 | 0.962 | 0.649 | 0.166 | 0.156 | 0.986 | 0.771 | 0.788 | 0.823 | 0.841
10 | NCI-H1944 | 0.431 | 0.376 | 0.402 | 0.408 | 0.387 | 0.454 | 0.324 | 0.334 | 0.17 | 0.146 | 0.834 | 0.919 | 0.636 | 0.164 | 0.17 | 0.873 | 0.72 | 0.621 | 0.678 | 0.923
11 | NCI-H1975 | 0.785 | 0.789 | 0.721 | 0.809 | 0.762 | 0.413 | 0.429 | 0.309 | 0.237 | 0.201 | 1.13 | 1.02 | 0.308 | 0.152 | 0.169 | 0.292 | 0.257 | 0.185 | 0.198 | 0.12
12 | NCI-H1993 | 1.21 | 1.02 | 1 | 1.06 | 0.893 | 0.666 | 0.523 | 0.451 | 0.424 | 0.422 | 0.732 | 0.666 | 0.581 | 0.547 | 0.516 | 0.829 | 0.931 | 0.363 | 0.877 | 0.832
13 | NCI-H2009 | 0.755 | 0.653 | 0.714 | 0.588 | 0.713 | 0.342 | 0.289 | 0.218 | 0.174 | 0.118 | 0.437 | 0.261 | 0.237 | 0.087 | 0.111 | 1.1 | 1.01 | 0.968 | 1.06 | 1.09
14 | NCI-H2023 | 0.489 | 0.496 | 0.446 | 0.467 | 0.382 | 0.177 | 0.178 | 0.119 | 0.0603 | 0.062 | 0.352 | 0.133 | 0.0733 | 0.0477 | 0.0781 | 0.728 | 0.759 | 0.698 | 0.656 | 0.66
15 | NCI-H2085 | 0.77 | 0.784 | 0.764 | 0.771 | 0.762 | 0.492 | 0.58 | 0.612 | 0.48 | 0.424 | 0.812 | 0.89 | 0.465 | 0.313 | 0.283 | 0.52 | 0.514 | 0.414 | 0.406 | 0.623
16 | NCI-H2087 | 0.62 | 0.6 | 0.683 | 0.752 | 0.788 | 0.197 | 0.248 | 0.253 | 0.0811 | 0.061 | 0.843 | 0.597 | 0.233 | 0.142 | 0.132 | 0.144 | 0.134 | 0.142 | 0.165 | 0.185
